Experimental data taken from ChEMBL document CHEMBL5523746, “Discovery of Novel Peptide Antagonists Targeting GPR55 for Liver Inflammation and Fibrosis” (2024).
The source made the active and inactive calls. Bridge positions count the residues as written; N and C are the ends. Peptide text beside a SMILES is read from it.

Tests used:
Type in all cases: functional, organism-based
Mus musculus [1] = experiment: In vivo anti-fibrotic activity against CCl4-induced liver fibrosis C57BL/6J mouse model assessed as decrease in pro-apoptotic protein BIM level at 300 microg/kg once daily for 3 weeks by Western blot analysis; settings: dose 300.0 µg/kg
Mus musculus [2] = experiment: In vivo anti-fibrotic activity against CCl4-induced liver fibrosis C57BL/6J mouse model assessed as reduction in oxidative stress by measuring increase in catalase at 150 to 300 microg/kg once daily for 3 weeks by enzyme activity assay; settings: dose 150-300 µg/kg
Mus musculus [3] = experiment: Induction of fatty acid beta-oxidation related gene expression in methionine and choline-deficient (MCD) diet-induced liver fibrosis C57BL/6J mouse model assessed as increase in PPARalpha mRNA level at 150 to 300 microg/kg once daily for 3 weeks by qPCR analysis; settings: dose 150-300 µg/kg
Mus musculus [4] = experiment: Reduction in fatty acid synthesis related gene expression in methionine and choline-deficient (MCD) diet-induced liver C57BL/6J fibrosis mouse model assessed as reduction in FATP1 mRNA level at 150 to 300 microg/kg once daily for 3 weeks by qPCR analysis; settings: dose 150-300 µg/kg
Mus musculus [5] = experiment: In vivo anti-fibrotic activity against methionine and choline-deficient (MCD) diet-induced liver fibrosis C57BL/6J mouse model assessed as decrease in inflammatory infiltration and collagen deposition at 150 to 300 microg/kg once daily for 3 weeks by H and E staining based assay; settings: dose 150-300 µg/kg
Mus musculus [6] = experiment: Induction of fatty acid beta-oxidation related gene expression in methionine and choline-deficient (MCD) diet-induced liver fibrosis C57BL/6J mouse model assessed as increase in ACOX mRNA level at 150 to 300 microg/kg once daily for 3 weeks by qPCR analysis; settings: dose 150-300 µg/kg
Mus musculus [7] = experiment: In vivo anti-fibrotic activity against methionine and choline-deficient (MCD) diet-induced liver fibrosis C57BL/6J mouse model assessed as reduction in oxidative stress by measuring increase in superoxide dismutase at 150 to 300 microg/kg once daily for 3 weeks by enzyme activity assay; settings: dose 150-300 µg/kg
Mus musculus [8] = experiment: In vivo anti-fibrotic activity against CCl4-induced liver fibrosis C57BL/6J mouse model assessed as liver function by measuring decrease in hydroxyproline (HYP) at 150 to 300 microg/kg once daily for 3 weeks by Western blot analysis; settings: dose 150-300 µg/kg
Mus musculus [9] = experiment: In vivo anti-fibrotic activity against CCl4-induced liver fibrosis C57BL/6J mouse model assessed as reduction in ROS treated once daily for 3 weeks by RT-qPCR analysis; settings: dose 150-300 µg/kg
Mus musculus [10] = experiment: In vivo anti-fibrotic activity against methionine and choline-deficient (MCD) diet-induced liver fibrosis C57BL/6J mouse model assessed as reduction in hepatocyte apoptosis at 150 to 300 microg/kg once daily for 3 weeks by TUNEL assay; settings: dose 150-300 µg/kg
Mus musculus [11] = experiment: In vivo anti-fibrotic activity against CCl4-induced liver fibrosis C57BL/6J mouse model assessed as decrease in COL1alpha at 150 to 300 microg/kg once daily for 3 weeks by IHC staining based assay; settings: dose 150-300 µg/kg
Mus musculus [12] = experiment: In vivo anti-fibrotic activity against methionine and choline-deficient (MCD) diet-induced liver fibrosis C57BL/6J mouse model assessed as reduction in oxidative stress by measuring increase in catalase at 150 to 300 microg/kg once daily for 3 weeks by enzyme activity assay; settings: dose 150-300 µg/kg
Mus musculus [13] = experiment: In vivo anti-fibrotic activity against CCl4-induced liver fibrosis C57BL/6J mouse model assessed as reduction in Acta2 mRNA level at 150 to 300 microg/kg once daily for 3 weeks by RT-qPCR analysis; settings: dose 150-300 µg/kg
Mus musculus [14] = experiment: In vivo anti-fibrotic activity against methionine and choline-deficient (MCD) diet-induced liver fibrosis C57BL/6J mouse model assessed as reduction in oxidative stress by measuring decrease in lipid oxidation product MDA at 150 to 300 microg/kg once daily for 3 weeks by enzyme activity assay; settings: dose 150-300 µg/kg

Measured: Activity

CC[C@H](C)[C@@H]1NC(=O)[C@H]([C@@H](C)O)NC(=O)[C@@H]2CCCN2C(=O)[C@H](CO)NC(=O)[C@H](CC(N)=O)NC(=O)[C@H](CCCCN)NC(=O)[C@H](CCCCN)NC(=O)[C@@H](N)CSSC[C@@H](C(=O)O)NC1=O (H-CKKNSPTIC-OH; disulfide 1-9)
active: Mus musculus [1] | Mus musculus [2] | Mus musculus [3] | Mus musculus [4] | Mus musculus [5] | Mus musculus [6] | Mus musculus [7] | Mus musculus [8] | Mus musculus [9] | Mus musculus [10] | Mus musculus [11] | Mus musculus [12] | Mus musculus [13] | Mus musculus [14]
